Values of other authors as cited in patent publication US20100113605A1 (priority 2007, published 2010).
Like-named read-outs stand apart in the source and are kept apart here.

Experiments:
[1] = test system: rat striatal slices; conditions: for Percentage increase in [^3H]dopamine release: mean ± SEM (n ≧ 4), NS = not significantly different from basal [^3H]dopamine overflow; for release of [^3H]dopamine from superfused rat striatal slices: low (10^−7M) and high (10^−5M) concentration
[2] = target: DAT (Rattus norvegicus, UniProt P23977); conditions: for Site of action: 'Intraneuronal' cell continues 'via DAT'; for Pharmacodynamics of effect on synaptic [DA]: [DA] = dopamine concentration, cell wraps, ends with 'increases'; for Firing dependent effect on synaptic [DA]: in vivo
[3] = in vivo
[4] = test system: electrically-evoked levels of extracellular dopamine in the nucleus accumbens; conditions: 100 nmol icv, 1 day after injection
[5] = test system: extraneuronal dopamine concentrations in the nucleus accumbens
[6] = test system: extraneuronal dopamine in the nucleus accumbens; conditions: d-amphetamine 0.5 mg/kg s.c.; tetrodotoxin 1×10^−6M

Sequence of DAT (P23977 whole entry): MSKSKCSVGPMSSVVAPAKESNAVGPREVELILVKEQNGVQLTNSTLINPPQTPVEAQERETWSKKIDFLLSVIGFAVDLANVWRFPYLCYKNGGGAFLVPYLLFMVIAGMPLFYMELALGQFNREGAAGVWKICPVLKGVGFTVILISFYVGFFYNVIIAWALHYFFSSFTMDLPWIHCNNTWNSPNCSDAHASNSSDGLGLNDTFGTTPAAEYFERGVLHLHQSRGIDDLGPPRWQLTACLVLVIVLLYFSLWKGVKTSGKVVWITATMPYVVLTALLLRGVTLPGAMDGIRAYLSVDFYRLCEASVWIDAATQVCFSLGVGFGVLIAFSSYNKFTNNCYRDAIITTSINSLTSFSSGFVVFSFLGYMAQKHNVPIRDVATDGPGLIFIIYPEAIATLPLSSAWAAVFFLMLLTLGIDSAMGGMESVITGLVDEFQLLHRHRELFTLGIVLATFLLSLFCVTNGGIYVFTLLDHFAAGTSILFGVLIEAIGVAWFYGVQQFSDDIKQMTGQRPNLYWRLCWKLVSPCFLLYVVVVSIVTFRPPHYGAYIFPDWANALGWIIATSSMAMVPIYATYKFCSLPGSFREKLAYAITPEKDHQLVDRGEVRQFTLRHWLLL

| Compound | Percentage increase in [^3H]dopamine release ([1]; 10^−5M) [%] | Percentage increase in [^3H]dopamine release ([1]; 10^−7M) | Site of action [2] | Pharmacodynamics of effect on synaptic [DA] [2] | Firing dependent effect on synaptic [DA] [2] | Euphoriant/psychostimulant [3] | release of [^3H]dopamine from superfused rat striatal slices [1] | further results |
| --- | --- | --- | --- | --- | --- | --- | --- | --- |
| COC(=O)C(c1ccccc1)C1CCCCN1 (racemic) [Methylphenidate, dl-threo-methylphenidate] | 24 ± 7 | no stimulation | Extraneuronal | Rapid, very large | Yes | Yes |  | Percentage increase in [^3H]dopamine release ([1]; 10^−5M, listed as methylphenidate): statistically significant increase |
| CC(N)Cc1ccccc1 (centres unmarked) [Amphetamine] |  |  | Intraneuronal | Rapid, very large | No | Yes |  |  |
| CNC(CC(C)C)C1(c2ccc(Cl)cc2)CCC1 (centres unmarked) [BTS 54 354, N-{1-[1-(4-chlorophenyl)cyclobutyl]-3-methylbutyl}-N-methylamine] |  |  |  |  |  |  | did not release |  |
| CC(C)CC(N)C1(c2ccc(Cl)cc2)CCC1 (centres unmarked) [BTS 54 505, 1-[1-(4-chlorophenyl)cyclobutyl]-3-methylbutylamine] |  |  |  |  |  |  | did not release |  |
| CC(NC(C)(C)C)C(=O)c1cccc(Cl)c1 (centres unmarked) [Bupropion, bupropion] |  |  | Extraneuronal | Gradual, moderate, | Yes |  | did not release |  |
| CNC(C)Cc1ccc2c(c1)OCO2 (centres unmarked) [MDMA, methylenedioxymethamphetamine] |  |  | Intraneuronal | Rapid, very large | No | Yes |  |  |
| CN[C@@H](C)Cc1ccccc1 [Methamphetamine, methamphetamine] | 140 ± 10 | 37 ± 10 % | Intraneuronal | Rapid, very large | No | Yes | dose-dependently released |  |
| CN1C2CCC1C(C(=O)OCc1ccc(N=C=S)cc1)C(c1ccc(Cl)cc1)C2.Cl (stereo not drawn) [RTI-76, 3β-(ρ-chlorophenyl)tropan-2α-carboxylic acid ρ-isothio-cyanatophenylmethyl ester hydrochloride] |  |  |  |  |  |  |  | extracellular concentration of dopamine in the nucleus accumbens, electrically evoked [4]: increases the extracellular concentration of dopamine in the nucleus accumbens in a frequency-dependent manner |
| CC(C)CC(N(C)C)C1(c2ccc(Cl)cc2)CCC1 (centres unmarked) [Sibutramine, sibutramine] |  |  | Extraneuronal | Gradual, moderate, | Yes | No | did not release | increase in extraneuronal concentration of dopamine in the nucleus accumbens ([5]; 2.0 mg/kg ip, freely-moving rats): failed to reach statistical significance; time of maximum increase in extraneuronal dopamine ([5]; 6.0 mg/kg ip): 60 min; maximum increase in extraneuronal concentration of dopamine in the nucleus accumbens ([5]; 6.0 mg/kg ip, at 60 min, freely-moving rats, P<0.001): 231±87% |
| C[C@H](N)Cc1ccccc1 [d-Amphetamine, d-amphetamine] | 138 ± 15 | 56 ± 9 % |  |  |  |  | dose-dependently released | peak increase in extraneuronal dopamine concentration in the nucleus accumbens ([5]; 0.5 mg/kg ip): 242±89%; peak increase in extraneuronal dopamine concentration in the nucleus accumbens ([5]; 1.5 mg/kg ip): 603±319%; time of maximum increase in extraneuronal dopamine ([5]; both doses, 0.5 and 1.5 mg/kg ip): 40 min; effect of tetrodotoxin in the dialysate on the drug-evoked increase in extraneuronal dopamine [6]: not altered |
